Laboratory results published in US9221864B2, “Tricyclic nucleic acid analogs” (Isis Pharmaceuticals, Inc., priority 2012, dated 2015).

Columns and labels:
Format in all cases: binding
[1] = tested on: matched DNA complement 5′-d(AGCAAAXAACGC)-3′, X=A; assay: Thermal stability (Tm) of 12mer oligomeric compounds duplexed to matched DNA complement; details: relative to unmodified DNA 12mer ISIS 438705; 1.2 μM, 10 mM sodium phosphate buffer pH 7.2, 100 mM NaCl, 0.1 mM EDTA
Method: (§1) The oligomeric compounds in Table 1 were evaluated for thermal stability (Tm) using the method described herein. The Tm of the modified 12mer oligomeric compounds were compared to an unmodified 12mer DNA oligonucleotide when duplexed to either the matched or mismatched RNA complement.
(§2) Tm's were determined using a Cary 100 Bio spectrophotometer with the Cary Win UV thermal program was used to measure absorbance vs. temperature. For the Tm experiments, the oligomeric compounds were prepared at a concentration of 1.2 μM in 10 mM sodium phosphate buffer (pH 7.2) containing 100 mM NaCl and 0.1 mM EDTA. The concentrations, determined at 85° C. was 1.2 μM after mixing of equal volumes of selected oligomeric compound and complementary matched or mismatched RNA. The oligomeric compounds were hybridized with a complimentary matched or mismatched RNA by heating the duplex to 90° C. for 5 minutes and then cooling to room temperature. Tm measurements were taken using a spectrophotometer while the duplex solution was heated in a cuvette at a rate of 0.5° C./min starting at 15° C. until the temperature was 85° C. Tm values were determined using Vant Hoff calculations (A260 vs temperature curve) using non self-complementary sequences where the minimum absorbance related to the duplex and the maximum absorbance related to the non-duplex single strand are manually integrated into the program. Mismatched thermal stability was also measured and calculated by subtracting values of Tm measured vs the mismatched RNA complement from values of Tm vs the matched RNA complement for each modification.
(§3) The sequence for matched DNA complement is designated herein as SEQ ID No.: 6, 5′-d(AGCAAAXAACGC)-3′, wherein X=A. The sequence for matched RNA complement is designated herein as SEQ ID No.: 6, 5′-r(AGCAAAYAACGC)-3′, wherein Y=A. The mismatched RNA complement sequence is designated herein as SEQ ID No.: 7, 5′-r(AGCAAAZAACGC)-3′, wherein Z=G, C or U.

[2] = tested on: mismatched RNA complement 5′-r(AGCAAAZAACGC)-3′, Z=G; assay: Mismatch discrimination (Tm) vs mismatched RNA complement, Z=G; details: 1.2 μM, 10 mM sodium phosphate buffer pH 7.2, 100 mM NaCl, 0.1 mM EDTA
Method: as §1, §2, §3

[3] = tested on: matched RNA complement 5′-r(AGCAAAYAACGC)-3′, Y=A; assay: Thermal stability (Tm) of 12mer oligomeric compounds duplexed to matched RNA complement; details: relative to unmodified DNA 12mer ISIS 438705; 1.2 μM, 10 mM sodium phosphate buffer pH 7.2, 100 mM NaCl, 0.1 mM EDTA
Method: as §1, §2, §3

[4] = tested on: mismatched RNA complement 5′-r(AGCAAAZAACGC)-3′, Z=C; assay: Mismatch discrimination (Tm) vs mismatched RNA complement, Z=C; details: 1.2 μM, 10 mM sodium phosphate buffer pH 7.2, 100 mM NaCl, 0.1 mM EDTA
Method: as §1
as §2, with “Mismatched thermal stability was also measured and calculated by subtracting values of Tm measured vs the mismatched RNA complement from values of Tm vs the matched RNA complement for each modification.” left out
as §3

[5] = tested on: mismatched RNA complement 5′-r(AGCAAAZAACGC)-3′, Z=U; assay: Mismatch discrimination (Tm) vs mismatched RNA complement, Z=U; details: 1.2 μM, 10 mM sodium phosphate buffer pH 7.2, 100 mM NaCl, 0.1 mM EDTA
Method: as §1
as §2, with “Mismatched thermal stability was also measured and calculated by subtracting values of Tm measured vs the mismatched RNA complement from values of Tm vs the matched RNA complement for each modification.” left out
as §3

ISIS 438707: 12mer GCGTTT1TTTGCT with one LNA nucleoside, phosphodiester linkages, SEQ ID No. 5 (DNA GCGTTT_{1}TTTGCT; as printed in the source, key not given here)
ΔTm/mod vs DNA, Matched, X = A [1]: +1.7 °C | ΔTm/mod vs RNA, Mismatched, Z = G; Mismatched Discrimination [Tm(mismatched) − Tm(matched)] [2]: −5.4 °C | ΔTm/mod vs RNA, Matched, Y = A [3]: +5.5 °C | ΔTm/mod vs RNA, Mismatched, Z = C; Mismatched Discrimination [Tm(mismatched) − Tm(matched)] [4]: −15.4 °C | ΔTm/mod vs RNA, Mismatched, Z = U; Mismatched Discrimination [Tm(mismatched) − Tm(matched)] [5]: −13.7 °C

ISIS 560180: 12mer GCGTTTaTTTGCT with one α-L-LNA nucleoside, phosphodiester linkages, SEQ ID No. 5 (DNA GCGTTT_{a}TTTGCT; as printed in the source, key not given here)
ΔTm/mod vs DNA, Matched, X = A [1]: +1.4 °C | ΔTm/mod vs RNA, Mismatched, Z = G; Mismatched Discrimination [Tm(mismatched) − Tm(matched)] [2]: −4.7 °C | ΔTm/mod vs RNA, Matched, Y = A [3]: +5.7 °C | ΔTm/mod vs RNA, Mismatched, Z = C; Mismatched Discrimination [Tm(mismatched) − Tm(matched)] [4]: −14.8 °C | ΔTm/mod vs RNA, Mismatched, Z = U; Mismatched Discrimination [Tm(mismatched) − Tm(matched)] [5]: −13.5 °C

A01: 12mer GCGTTTbTTTGCT with one α-L-TriNA (α-L-tricyclic nucleic acid) nucleoside, phosphodiester linkages, SEQ ID No. 5 (DNA GCGTTT_{b}TTTGCT; as printed in the source, key not given here) [Compound A01]
ΔTm/mod vs DNA, Matched, X = A [1]: +2.6 °C | ΔTm/mod vs RNA, Mismatched, Z = G; Mismatched Discrimination [Tm(mismatched) − Tm(matched)] [2]: −5.5 °C | ΔTm/mod vs RNA, Matched, Y = A [3]: +7.1 °C | ΔTm/mod vs RNA, Mismatched, Z = C; Mismatched Discrimination [Tm(mismatched) − Tm(matched)] [4]: −16.7 °C | ΔTm/mod vs RNA, Mismatched, Z = U; Mismatched Discrimination [Tm(mismatched) − Tm(matched)] [5]: −17.0 °C

ISIS 438705: unmodified 12mer DNA GCGTTTTTTGCT, phosphodiester linkages, SEQ ID No. 5, purchased from commercial sources (unmodified DNA)
ΔTm/mod vs DNA, Matched, X = A [1]: 0 (ref) ° C. | ΔTm/mod vs RNA, Mismatched, Z = G; Mismatched Discrimination [Tm(mismatched) − Tm(matched)] [2]: −4.1 °C | ΔTm/mod vs RNA, Matched, Y = A [3]: 0 (ref) ° C. | ΔTm/mod vs RNA, Mismatched, Z = C; Mismatched Discrimination [Tm(mismatched) − Tm(matched)] [4]: −13.0 °C | ΔTm/mod vs RNA, Mismatched, Z = U; Mismatched Discrimination [Tm(mismatched) − Tm(matched)] [5]: −13.2 °C
